Values after ≈ are worked out from the molar mass of the structure shown.
Tests used:
[1] = system: E. coli ΔfhuA; assay: MIC, Keio mutant; format: cell-based, Escherichia coli
Description: (§1) All bacterial strains (see description and sources Table S1) were stored at −80 °C, and grown on tryptone soya agar (TSA) at 35 °C. The iron-deprived (ID)-MHBCA (cation-adjusted Muller-Hinton Broth, Becton Dickinson, Mississauga, ON, Canada) medium was prepared as reported by refs. [21],[50]. Briefly, MHBCA was treated with 10% Chelex® 50-100 mesh (Sigma) and stirred for 6 h at room temperature. The resin was removed by filtration. Divalent Ca^2+ (CaCl2), Mg^2+ (MgCl2), and Zn^2+(ZnSO4), were then added in the iron-depleted medium at 22, 12, and 1 μg/ml respectively. Finally, the pH was adjusted to 7.3, and the medium was sterilized with a 0.2-μm filter. Regular MHBCA (i.e., not treated with Chelex®) was used to compare the inhibitory activity of conjugates in iron-sufficient conditions.
(§2) Minimal inhibitory concentrations (MICs) were performed using a broth microdilution technique according to the Clinical and Laboratory Standards Institute (CLSI) guidelines. MICs were determined in MHBCA and in ID-MHBCA. To check the impact of β-lactamases, MICs in the presence of a β-lactamase inhibitor were also determined. The inhibitor was homogenized at 2X the final concentration and added to the bacterial inoculum just before distributing cells into the wells containing the drug dilutions. The final concentration of each inhibitor was 4 μg/mL for clavulanic acid (tested against K. pneumoniae) and 200 μg/mL for 3-aminophenylboronic acid (tested against P. aeruginosa and A. baumannii).

[2] = system: E. coli Δfiu; assay: MIC, Keio mutant; format: cell-based, Escherichia coli
Description: as §1, §2

[3] = system: E. coli ΔcirA; assay: MIC, Keio mutant; format: cell-based, Escherichia coli; settings: Escherichia coli
Description: as §1, §2

[4] = system: K. pneumoniae ATCC 13883; assay: MIC, broth microdilution (CLSI); format: cell-based, Klebsiella pneumoniae; settings: for MIC with β-lactamase inhibitor (βI): + 4 μg/mL clavulanic acid; for MIC: Klebsiella pneumoniae
Description: as §1, with “conditions. The resin used for Chelex treatment was always fresh and had never been regenerated, ensuring consistent iron removal.” for “conditions.”
as §2

[5] = target: PBP1a/1b; assay: Membrane PBP binding assay, competition with Bocillin FL; settings: K. pneumoniae ATCC 13883 membranes
Description: (§3) Membrane extracts containing PBPs were obtained as described above. Briefly, all species were grown in 1 L of TSB until the OD600 reached 0.9. The washed pellet was incubated with lysozyme (400 μg/mL), DNase (10 μg/mL) RNase(10 μg/mL) and anti-protease cocktail (200 mg/20 mL). Lysis was done with a French press (20,000 psi) and membrane protein were pelleted by ultracentrifugation steps (100,000 × g). The pellet was suspended in a minimal volume (300–500 μL) of KP 0.05 M buffer at pH 7. The protein concentration in the membrane preparations was determined with the Micro BCA TM Protein Assay Kit (Thermo Fisher Scientific, Rockford, IL) using bovine serum albumin as a standard.
(§4) The PBP binding assay was done as described previously[36],[56],[57]. For each antibiotic concentration tested, a quantity of 25 to 40 μg of membrane preparation was used as the source of PBPs, depending on the species. For the purified PaPBP3, 150 ng was used in the assay. First, increasing concentrations of the test antibiotic was added to the membrane or purified PaPBP3 preparations and incubated for 10 min at 30 °C. The reporter molecule Bocillin FL was then added at 12.5 μM for the membrane PBPs preparations and at 500 nM for the pure PaPBP3 samples for an additional 20 min at 30 °C. All reactions were stopped with the addition of the Laemmli-loading buffer (Bio-Rad) containing fresh β-mercaptoethanol (Sigma). All reactions were then heated at 100°C for 3 min before migration on SDS-polyacrylamide discontinuous gel system (7.5% stacking and 10% separating). Control samples without Bocillin FL were also included to highlight autofluorescent proteins that are not PBPs.
(§5) To be able to visualize labeled PBPs after electrophoresis, gels were rinsed in water and fixed in a solution of 50% methanol and 7% acetic acid for 30 min. The fluorescent images of gels were obtained with the Typhoon FLA 9500 instrument (GE-Healthcare Bio-Sciences Inc., Baie-d’Urfé, QC, CA) using a 473 nm excitation wavelength. To obtain quantifiable data, the software Quantity One 1D analysis was used (version 4.6.6; Bio-Rad Laboratories, Richmond, CA). The volume (intensity × constant area) of each PBP was measured. […] All IC50 data were obtained from at least two independent PBP binding assays using two different sets of compound concentrations using a linear regression. The PBP profiles were confirmed, and the PBP numbering were determined using published data and individual molecular weights. […] For example, amdinocillin (Sigma) was used for PBP2 identification. […] The IC50 for PBP 2 of P. aeruginosa was measured by including the SDS-PAGE comigrating autofluorescent protein in the background, as done previously.

[6] = target: T1, PBP3 (Pseudomonas aeruginosa, UniProt G3XD46); assay: as above
T1 construct: using bacterial membranes as the source of PBPs; endogenous in cells; host or cells: P. aeruginosa ATCC 27853 membrane preparation
T1 sequence (G3XD46 whole entry): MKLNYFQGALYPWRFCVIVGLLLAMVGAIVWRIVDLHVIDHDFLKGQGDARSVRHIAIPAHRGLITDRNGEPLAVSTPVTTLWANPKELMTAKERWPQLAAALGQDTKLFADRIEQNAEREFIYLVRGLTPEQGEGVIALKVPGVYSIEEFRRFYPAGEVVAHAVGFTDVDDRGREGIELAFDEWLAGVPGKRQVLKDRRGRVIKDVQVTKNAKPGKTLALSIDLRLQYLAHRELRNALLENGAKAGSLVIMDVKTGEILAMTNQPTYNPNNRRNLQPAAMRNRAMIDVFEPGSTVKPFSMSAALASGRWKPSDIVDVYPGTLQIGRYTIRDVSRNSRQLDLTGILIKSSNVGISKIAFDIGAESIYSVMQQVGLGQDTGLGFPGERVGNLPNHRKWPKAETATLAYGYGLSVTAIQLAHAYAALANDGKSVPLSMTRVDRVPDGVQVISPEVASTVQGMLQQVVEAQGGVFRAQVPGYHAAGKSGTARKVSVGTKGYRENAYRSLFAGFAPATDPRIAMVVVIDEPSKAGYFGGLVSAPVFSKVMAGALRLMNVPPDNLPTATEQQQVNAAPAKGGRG
Description: as §3, §4, §5

[7] = system: E. coli lptD4213; assay: MIC, hyperpermeable mutant; format: cell-based, Escherichia coli; settings: Escherichia coli
Description: as §1, with “conditions. The resin used for Chelex treatment was always fresh and had never been regenerated, ensuring consistent iron removal.” for “conditions.”
as §2

[8] = system: E. coli ATCC 25922; assay: MIC, broth microdilution (CLSI); format: cell-based, Escherichia coli; settings: for MIC: Escherichia coli
Description: as §1, §2

[9] = ID-MHBCA, 0 and 1 µg/mL supplemental iron (Table S2)
[10] = ID-MHBCA, 1 versus 0 µg/mL supplemental iron (peer review file table)

`O=C(CN(CCCCNC(=O)c1cccc(O)c1O)C(=O)c1cccc(O)c1O)NC(C(=O)NC1C(=O)N2C(C(=O)O)=C(Cl)CCC12)c1ccccc1` (stereo not shown) [BLOR, bis-catechol (azotochelin)-loracarbef] showed an MIC ([1]; Escherichia coli, ID-MHBCA) of 0.024 µM (≈ 0.018 µg/mL), an MIC ([1]; Escherichia coli, MHBCA) of 0.1 to 0.4 µM (≈ 0.075 to 0.3 µg/mL) and an MIC ([1]; MHBCA) of 0.2 µM (≈ 0.15 µg/mL). It also gave an MIC ([2]; Escherichia coli, ID-MHBCA) of 0.024 µM (≈ 0.018 µg/mL), an MIC ([2]; Escherichia coli, MHBCA) of 0.1 to 0.4 µM (≈ 0.075 to 0.3 µg/mL) and an MIC ([2]; MHBCA) of 0.1 µM (≈ 0.075 µg/mL). The MIC ([3]; ID-MHBCA) was 0.2 µM (≈ 0.15 µg/mL), the MIC ([3]; MHBCA) was 13 µM (≈ 9.75 µg/mL) and the “MIC ratio unconjugated β-lactam/conjugate” value ([4]; ID-MHBCA) was 16. The “MIC ratio 0/1” value [4, 9] was 64, the “MIC ratio 1/0” value [4, 10] was 64 and the “MIC with β-lactamase inhibitor (βI)” value ([4]; ID-MHBCA) was 0.1 µM. It also gave an MIC ([4]; ATCC13883, ID-MHBCA (−), 0 µg/mL supplemental iron) of 0.1 µM (≈ 0.075 µg/mL), an MIC ([4]; ATCC13883, ID-MHBCA + 0.1 µg/mL supplemental iron) of 0.4 µM and an MIC ([4]; ATCC13883, ID-MHBCA + 1 µg/mL supplemental iron) of 6.3 µM. For the same compound, the MIC ([4]; ATCC13883, MHBCA (+)) was 0.2 µM (≈ 0.15 µg/mL), the “MIC ratio unconjugated β-lactam/conjugate” value ([4]; MHBCA) was 8 and the “MIC with β-lactamase inhibitor (βI)” value ([4]; MHBCA) was 0.2 µM. The IC50 [5] was 0.43 ± 0.17 µM, the “IC50 value ratio βL/SID-βL, PBP3” value ([6]; P. aeruginosa ATCC 27853, membrane) was > 16 and the IC50 ([6]; P. aeruginosa ATCC 27853 membranes, read-out: IC50 PBP3) was 3.2 ± 0.1 µM. It also gave an MIC ([7]; LPTD4213, lptD4213, ID-MHBCA (−)) of 0.006 µM (≈ 0.0045 µg/mL), an MIC ([7]; LPTD4213, lptD4213, MHBCA (+)) of 0.006 µM (≈ 0.0045 µg/mL) and an MIC ([8]; ATCC25922, ID-MHBCA + 0.1 µg/mL supplemental iron) of 0.05 µM. For the same compound, the MIC ([8]; ATCC25922, ID-MHBCA + 1 µg/mL supplemental iron) was 0.1 µM, the MIC ([8]; ATCC25922, MHBCA (+)) was 0.024 µM (≈ 0.018 µg/mL) and the MIC ([8]; ATCC25922, iron-deprived ID-MHBCA (−), 0 µg/mL supplemental iron) was 0.012 µM (≈ 0.009 µg/mL). For the same compound, the “MIC ratio unconjugated β-lactam/conjugate” value ([8]; ID-MHBCA) was 128, the “MIC ratio 0/1” value [8, 9] was 8 and the “MIC ratio 1/0” value [8, 10] was 8. The “MIC ratio unconjugated β-lactam/conjugate (AMP/BAMP, LOR/BLOR, CEF/MCEF)” value ([8]; MHBCA) was 128.

Source: PMC12592502, “Unraveling the mechanisms behind the enhanced efficacy of β-lactam-based sideromycins” (Communications Biology, 2025)
